Measured values from patent US6774143B1, “Method for treating cells resistant to antineoplastic agents” (Novartis AG, priority 2003, dated 2004).
Like-named read-outs stand apart in the source and are kept apart here.

Columns and labels:
[1] = test system: 1A9 cells; test: Antiproliferative assay (MTS); assay type: cell-based; conditions: Homo sapiens, 1A9, 72 h, single value given
Experimental: A549, a human non-small cell lung carcinoma and MDA-MB-435, a human breast carcinoma, used in this study are obtained from the American Type Culture Collection (ATCC, Rockville, Md., USA). MDA-MB-435 cells are maintained in MEM containing 10% FBS, 1% sodium pyruvate, 1% MEM non-essential amino acids, and 15 mM HEPES (pH=7.4). A549 cells are maintained in RPMI 1640 containing 10% FBS. 1A9, a single-cell clone of the human ovarian carcinoma cell line A2780 and PTX22, the paclitaxel-resistant subline, used in this stdy are obtained from M. Wartman (Novartis Pharmauticals). 1A9 cells and PTX22 cells are maintained in RPMI 1640 supplemented with 10% FBS. PTX22 maintenance media also contained 15 ng/mL paclitaxel and 5 μg/mL verapamil. Drug is removed from the media for 5-7 days before use in an experiment. […]
Cell lines are trypsinized and counted using a Coulter counter. […] Initial cell density for each cell line is measured on day 1 by adding 10 μL MTS mixture (see below), incubating for 4 h and recording absorbance at 490 nm (A490). Two or three days after test compound addition, 10 μL/well of MTS mixture is added to the test plates and A490 was read 4 h later. A490 values for wells containing cells are corrected for media absorbance, then normalized to initial density readings to determine percent net growth. Percent net growth is calculated as (A490+drug−A490 initial)/(A490—drug—A490 initial). […]

[2] = test system: Bcl-xL; test: Western blot, Bcl-xL phosphorylation; assay type: cell-based, human; conditions: 24 hour treatment
Experimental: Cells are plated at a density of 1.5×10^6 cells per 100 mm plate. The next day cells are treated with vehicle control (0.1% DMSO) or test compound for 24 h. Cells are harvested by washing monolayers twice with PBS, then lysing with 300 ul of lysis buffer[20 mM Tris (pH 8.0), […], 100 mM NaCl, 0.5% NP40, 0.0125% DOC, 2.5% glycerol, 1 mM vanadate, 25 mM sodium fluoride and protease inhibitor cocktail (1:500 dilution, Sigma)]. Lysates were spun at 12,000× g and the supernatant transferred to a new tube. Protein concentration of the lysates is determined using BCA protein assay Reagent (Pierce). Samples (75 μg) are resolved by SDS-PAGE on a 7.5% or 14% tris-glycine gel for Raf-1 and Bcl-xL, respectively, and transferred to nitrocellulose. Immunodetection is performed as described by Amersham Vistra Fluorescence Western blotting Kit directions with the following modifications: the membrane is blocked with 5% milk (Carnation Non-Fat Dry Milk) in buffer containing 20 mM Tris-HCl (pH=7.4), 100 mM NaCl, and 0.2% Tween 20 (TBST) overnight and is subsequently incubated for 2 h with primary antibody (Santa Cruz C-12 for Raf-1 and Santa Cruz H-62 for Bcl-xL), followed by fluorescein-linked anti-rabbit Ig in 5% milk and anti-fluorescein alkaline phosphatase conjugate in TBST at 1:500 and 1:2000 dilutions, respectively. A Storm 860 (Molecular Dynamics) is used to detect fluorescent product according to the manufacturer's instructions.

[3] = test system: HCT-15 colon cells; test: Antiproliferative assay, methylene blue staining; assay type: cell-based; conditions: Homo sapiens, read-out: IC50 antiproliferative activity
Excerpt: The following cell lines are obtained from the American Type Culture Collection (ATCC, Rockville, Md., USA): human colon carcinomas HCT-15 (CCL 225) and HCT-116 (CCL 247), human lung adenocarcinoma A549 (CCL 185), human large cell carcinoma NCI-H460 (HTB 177), estrogen-independent breast carcinoma MDA-MB-231 ([…]), prostate cancer cell line Du 145 (HTB 81). The human KB-31 (drug-sensitive) and KB-8511 (multidrug-resistant, Pgp170 overexpressing) epidermoid carcinoma cells are obtained from Dr. R. M. Baker, Roswell Park Memorial Institute (Buffalo, N.Y., USA) and have been previously described (Akiyam S, et al. Somatic Cell Molec Genetics 1985;11:117-126 and Fojo A, et al., Cancer Res. […];45:3002-3007). The human metastatic prostate carcinoma PC-3M is obtained from Dr. I. J. Fidler (MD Anderson Cancer Center, Houston, Tex., USA). The estrogen-dependent human breast carcinoma cell line MCF-7/ADR (multidrug resistant) is a subline of the MCF-7 cell line (ATCC HTB 22) and is obtained from Dr. D. Fabbro (Novartis Pharma AG, Basel, Switzerland) and has been previously described (Blobe G C, et al. J. Biol. Chem. 1993; 268:658-664).
For the antiproliferative assays, cells are seeded at 1.5×10^3/well into 96-well microtiter plates and incubated overnight. Compounds are added in serial dilutions on day 1. The plates are than incubated for additional 5 days. This allowed the control cultures to undergo at least 3 cell divisions. After incubation the cells are fixed with 3.3% v/v glutaraldehyde, washed with water and stained with 0.05% w/v methylene blue. After washing, the dye is eluted with 3% v/v HCl and the optical density measured at 665 nm with a SpectraMax 340 (Bucherer, Basel, Switzerland). IC50 values are determined by a computerized system (SoftPro, Bucherer, Basel, Switzerland) using the formula (OD test—OD start)/(OD control—OD start)×100. IC50 is defined as the drug concentration which leads to 50% of cells per well compared to control cultures (100%) at the end of the incubation period.

| IC50 ([3]; 120 h, HCT-15 colon cells, 5 days incubation) [nM] | Compound | IC50 ([1]; read-out: 72 hour IC50, 1A9 cells) [nM] | Bcl-xL phosphorylation ([2]; A549 cells) | Bcl-xL phosphorylation ([2]; MDA-MB-435 cells) | IC50 ([3]; HCT-15, 120 h) [nM] | IC50 ([1]; 1A9 cells, read-out: 72 hour IC50) [nM] |
| --- | --- | --- | --- | --- | --- | --- |
| – | C=C/C=C\[C@H](C)[C@H](OC(N)=O)[C@@H](C)[C@H](O)[C@@H](C)C/C(C)=C\[C@H](C)[C@@H](O)[C@@H](C)/C=C\[C@@H](O)C[C@@H]1OC(=O)[C@H](C)[C@@H](O)[C@H]1C [discodermolide, (+)-Discodermolide] | 25 | phosphorylated | phosphorylated | ~8 | – |
| ~120 | CC(=O)O[C@H]1C(=O)[C@@]2(C)[C@H]([C@H](OC(=O)c3ccccc3)[C@]3(O)C[C@H](OC(=O)[C@H](O)[C@@H](NC(=O)c4ccccc4)c4ccccc4)C(C)=C1C3(C)C)[C@]1(OC(C)=O)CO[C@@H]1C[C@@H]2O [paclitaxel, reference compound] | – | phosphorylated | phosphorylated | – | 6 |
